pIC50: −log10 of the molar value. *1 amine or outer side, *2 acyl side, *3 side chain or, on linkers, in order; H or OH if unused. Where a SMILES comes first, the peptide text is derived from it. Bridges are numbered along the chain shown (N, C = ends). [ ]: non-standard residue; d: D form. Abu(4-yl) = O=C([C@H](CC[*:3])N[*:1])[*:2]; 2Nal = N[C@@H](Cc1ccc2ccccc2c1)C(=O)O; AEF = NCCOc1ccc(C[C@H](N)C(=O)O)cc1; αMeK = C[C@](N)(CCCCN)C(=O)O
Experiments:
[1] = Half life in simulated gastric fluid at 20 uM by LC-MS/MS analysis; format: ADME
Interleukin-23 receptor [2] = biological target: T1, Interleukin-23 receptor (Homo sapiens, UniProt Q5VWK5); experiment: Inhibition of interleukin-23 receptor in human DB cells assessed as reduction in IL-23-stimulated STAT3 phosphorylation incubated for 30 mins by HTRF assay; format: cell-based
T1 sequence (Q5VWK5 whole entry): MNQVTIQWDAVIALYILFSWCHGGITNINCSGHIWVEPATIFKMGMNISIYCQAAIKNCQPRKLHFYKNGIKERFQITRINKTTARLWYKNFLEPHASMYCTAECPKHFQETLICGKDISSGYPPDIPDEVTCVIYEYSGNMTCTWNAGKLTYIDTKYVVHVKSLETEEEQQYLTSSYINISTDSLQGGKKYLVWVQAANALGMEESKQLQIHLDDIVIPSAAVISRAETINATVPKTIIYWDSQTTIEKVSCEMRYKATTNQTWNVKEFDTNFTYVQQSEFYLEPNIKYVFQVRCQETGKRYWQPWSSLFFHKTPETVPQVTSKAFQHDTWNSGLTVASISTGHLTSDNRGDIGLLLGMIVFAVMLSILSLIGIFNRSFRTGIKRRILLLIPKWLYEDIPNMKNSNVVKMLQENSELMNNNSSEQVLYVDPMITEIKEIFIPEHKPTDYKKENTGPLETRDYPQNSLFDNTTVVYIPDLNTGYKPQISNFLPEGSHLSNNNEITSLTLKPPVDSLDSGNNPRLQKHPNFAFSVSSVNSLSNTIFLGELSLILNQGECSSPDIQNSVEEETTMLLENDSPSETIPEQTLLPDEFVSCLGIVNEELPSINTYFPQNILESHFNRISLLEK

[3] = Half life in simulated intestinal fluid at 20 uM by LC-MS/MS analysis; format: ADME
[4] = Inhibition of interleukin-23 binding to rat interleukin-23 receptor incubated for 2 hrs by competitive binding ELISA
Interleukin-23 receptor [5] = biological target: T1, Interleukin-23 receptor; experiment: Inhibition of interleukin-23 binding to human interleukin-23 receptor incubated for 2 hrs by competitive binding ELISA

Row | Structure (SMILES) | half-life at 20 µM [1] [h] | pIC50 (Interleukin-23 receptor [2]) | half-life at 20 µM [3] [h] | pIC50 [4] | pIC50 (Interleukin-23 receptor [5])
1 | COc1ccc(C[C@H](NC(=O)[C@@H]2CSCC[C@H](NC(C)=O)C(=O)N[C@@H](CCC(N)=O)C(=O)N[C@@H]([C@@H](C)O)C(=O)N[C@@H](Cc3c[nH]c4ccccc34)C(=O)N[C@@H](CCC(N)=O)C(=O)N2)C(=O)N[C@@H](Cc2c[nH]c3ccccc23)C(=O)N[C@@](C)(CCCCN)C(=O)N[C@@H](CCC(=O)O)C(=O)N[C@@H](CC(N)=O)C(=O)NCC(N)=O)cc1 | < 1 | 7.60 to 8.00 | > 6 | 7.00 to 7.60 | 7.60 to 8.00
2 | COc1ccc(C[C@H](NC(=O)[C@@H](NC(=O)[C@H](CCC(N)=O)NC(=O)[C@H](Cc2c[nH]c3ccccc23)NC(=O)[C@@H](NC(=O)[C@H](CCC(N)=O)NC(=O)[C@@H](NC(C)=O)C(C)(C)S)[C@@H](C)O)C(C)(C)S)C(=O)N[C@@H](Cc2ccc3ccccc3c2)C(=O)N[C@@](C)(CCCCN)C(=O)N[C@@H](CCCCNC(C)=O)C(=O)N[C@@H](CC(N)=O)C(=O)NCC(N)=O)cc1 | > 6 | > 8.00 | > 6 | 7.00 to 7.60 | 7.00 to 7.60
3 | COc1ccc(C[C@H](NC(=O)[C@@H]2CSCC[C@H](NC(C)=O)C(=O)N[C@@H](CCC(N)=O)C(=O)N[C@@H]([C@@H](C)O)C(=O)N[C@@H](Cc3c[nH]c4ccccc34)C(=O)N[C@@H](CCC(N)=O)C(=O)N2)C(=O)N[C@@H](Cc2ccc3ccccc3c2)C(=O)N[C@@](C)(CCCN)C(=O)N[C@@H](CCCCNC(C)=O)C(=O)N[C@@H](CC(N)=O)C(=O)NCC(N)=O)cc1 | < 1 | > 8.00 | 2 to 3 | 7.60 to 8.00 | 7.60 to 8.00
4 | COc1ccc(C[C@H](NC(=O)[C@@H]2CSCC[C@H](NC(C)=O)C(=O)N[C@@H](CCC(N)=O)C(=O)N[C@@H]([C@@H](C)O)C(=O)N[C@@H](Cc3c[nH]c4ccccc34)C(=O)N[C@@H](CCC(N)=O)C(=O)N2)C(=O)N[C@@H](Cc2c[nH]c3ccccc23)C(=O)N[C@@](C)(CCCCN)C(=O)N[C@@H](CCCCNC(C)=O)C(=O)N[C@@H](CC(N)=O)C(=O)NCC(N)=O)cc1 | < 1 | 7.60 to 8.00 | > 6 | 7.60 to 8.00 | 7.60 to 8.00
5 | CC(=O)N[C@@H](CC(C)C)C(=O)N[C@H]1CCSC[C@@H](C(=O)N[C@@H](Cc2ccc(OCCN)cc2)C(=O)N[C@@H](Cc2ccc3ccccc3c2)C(=O)N[C@@](C)(CCCCN)C(=O)N[C@@H](CCC(=O)O)C(=O)N[C@@H](CC(N)=O)C(=O)N[C@@H](CC(N)=O)C(N)=O)NC(=O)[C@H](CCC(N)=O)NC(=O)[C@H](Cc2c[nH]c3ccccc23)NC(=O)[C@H]([C@@H](C)O)NC(=O)[C@H](CCC(N)=O)NC1=O (Ac-L[Abu(4-yl)]QTWQC[AEF][2Nal][αMeK]ENN-NH2; thioether 2-7) | 2 to 3 | > 8.00 | > 6 | > 8.00 | > 8.00
6 | CC(=O)N[C@H](C(=O)N[C@@H](CCC(N)=O)C(=O)N[C@H](C(=O)N[C@@H](Cc1c[nH]c2ccccc12)C(=O)N[C@@H](CCC(N)=O)C(=O)N[C@H](C(=O)N[C@@H](Cc1ccc(OCCN)cc1)C(=O)N[C@@H](Cc1ccc2ccccc2c1)C(=O)N[C@@](C)(CC(C)C)C(=O)N[C@@H](CCC(N)=O)C(=O)N[C@@H](CC(N)=O)C(=O)N[C@@H](CC(N)=O)C(N)=O)C(C)(C)S)[C@@H](C)O)C(C)(C)S | > 6 | > 8.00 | > 6 | > 8.00 | > 8.00
7 | COc1ccc(C[C@H](NC(=O)[C@@H]2CSCC[C@H](NC(=O)[C@@H](CCCCN)NC(C)=O)C(=O)N[C@@H](CCC(N)=O)C(=O)N[C@@H]([C@@H](C)O)C(=O)N[C@@H](Cc3c[nH]c4ccccc34)C(=O)N[C@@H](CCC(N)=O)C(=O)N2)C(=O)N[C@@H](Cc2ccc3ccccc3c2)C(=O)N[C@@](C)(CC(C)C)C(=O)N[C@@H](CCC(=O)O)C(=O)N[C@@H](CC(N)=O)C(=O)NCC(N)=O)cc1 | < 1 | > 8.00 | 1 to 2 | 7.60 to 8.00 | > 8.00
8 | CC(=O)NCCCC[C@H](NC(=O)[C@](C)(CCCCN)NC(=O)[C@H](Cc1ccc2ccccc2c1)NC(=O)[C@H](Cc1ccc(OCCN)cc1)NC(=O)[C@@H]1CSCC[C@H](NC(C)=O)C(=O)N[C@@H](CCC(N)=O)C(=O)N[C@@H]([C@@H](C)O)C(=O)N[C@@H](Cc2c[nH]c3ccccc23)C(=O)N[C@@H](CCC(N)=O)C(=O)N1)C(=O)N[C@@H](CC(N)=O)C(=O)NCC(N)=O | > 6 | > 8.00 | > 6 | > 8.00 | > 8.00

Further lines, results first:

Row | half-life at 20 µM [1] [h] | pIC50 (Interleukin-23 receptor [2]) | half-life at 20 µM [3] [h] | pIC50 [4] | pIC50 (Interleukin-23 receptor [5]) | Structure (SMILES)
9 | < 1 | > 8.00 | 1 to 2 | 7.00 to 7.60 | > 8.00 | COc1ccc(C[C@H](NC(=O)[C@@H]2CSCC[C@H](NC(=O)[C@@H](CCCCNC(=O)COCC(=O)NCCCC[C@@H](NC(C)=O)C(=O)N[C@H]3CCSC[C@@H](C(=O)N[C@@H](Cc4ccc(OC)cc4)C(=O)N[C@@H](Cc4ccc5ccccc5c4)C(=O)N[C@@](C)(CC(C)C)C(=O)N[C@@H](CCC(=O)O)C(=O)N[C@@H](CC(N)=O)C(=O)NCC(N)=O)NC(=O)[C@H](CCC(N)=O)NC(=O)[C@H](Cc4c[nH]c5ccccc45)NC(=O)[C@H]([C@@H](C)O)NC(=O)[C@H](CCC(N)=O)NC3=O)NC(C)=O)C(=O)N[C@@H](CCC(N)=O)C(=O)N[C@@H]([C@@H](C)O)C(=O)N[C@@H](Cc3c[nH]c4ccccc34)C(=O)N[C@@H](CCC(N)=O)C(=O)N2)C(=O)N[C@@H](Cc2ccc3ccccc3c2)C(=O)N[C@@](C)(CC(C)C)C(=O)N[C@@H](CCC(=O)O)C(=O)N[C@@H](CC(N)=O)C(=O)NCC(N)=O)cc1
10 | 1 to 2 | > 8.00 | > 6 | > 8.00 | > 8.00 | CC(=O)N[C@H](CCC(=O)O)C(=O)N[C@H]1CCSC[C@@H](C(=O)N[C@@H](Cc2ccc(OCCN)cc2)C(=O)N[C@@H](Cc2ccc3ccccc3c2)C(=O)N[C@@](C)(CCCCN)C(=O)N[C@@H](CCC(=O)O)C(=O)N[C@@H](CC(N)=O)C(=O)N[C@@H](CC(N)=O)C(N)=O)NC(=O)[C@H](CCC(N)=O)NC(=O)[C@H](Cc2c[nH]c3ccccc23)NC(=O)[C@H]([C@@H](C)O)NC(=O)[C@H](CCC(N)=O)NC1=O
11 | 3 to 6 | > 8.00 | > 6 | 7.00 to 7.60 | 7.00 to 7.60 | COc1ccc(C[C@H](NC(=O)[C@@H](NC(=O)[C@H](CCC(N)=O)NC(=O)[C@H](Cc2c[nH]c3ccccc23)NC(=O)[C@@H](NC(=O)[C@H](CCC(N)=O)NC(=O)[C@@H](NC(=O)CCC(=O)O)C(C)(C)S)[C@@H](C)O)C(C)(C)S)C(=O)N[C@@H](Cc2ccc3ccccc3c2)C(=O)N[C@@](C)(CCCCN)C(=O)N[C@@H](CCCCNC(C)=O)C(=O)N[C@@H](CC(N)=O)C(=O)NCC(N)=O)cc1
12 | < 1 | > 8.00 | 2 to 3 | 7.00 to 7.60 | 7.60 to 8.00 | COc1ccc(C[C@H](NC(=O)[C@@H]2CSCC[C@H](NC(C)=O)C(=O)N[C@@H](CCC(N)=O)C(=O)N[C@@H]([C@@H](C)O)C(=O)N[C@@H](Cc3c[nH]c4ccccc34)C(=O)N[C@@H](CCC(N)=O)C(=O)N2)C(=O)N[C@@H](Cc2ccc3ccccc3c2)C(=O)N[C@@](C)(CCCN)C(=O)N[C@@H](CCC(=O)O)C(=O)N[C@@H](CC(N)=O)C(=O)NCC(N)=O)cc1
